Reference: PubChem BioAssay (NCI)
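1) Cells in 96-well plates. 2) Compound, 48 h, 5 concentrations. 3) Linear interpolation between surrounding doses. 4) Unreached endpoint = highest concentration. The concentration for full growth arrest is given as TGI.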

Columns and labels:
Assay in all cases: growth of human tumour cells (NCI), 48 h
786-0 renal = system: 786-0 renal
A549 NSCLC = system: A549 NSCLC
ACHN renal = system: ACHN renal
BT-549 breast = system: BT-549 breast
CAKI-1 renal = system: CAKI-1 renal
CCRF-CEM leukemia = system: CCRF-CEM leukemia
COLO 205 colon = system: COLO 205 colon
DU-145 prostate = system: DU-145 prostate
EKVX NSCLC = system: EKVX NSCLC
HCC-2998 colon = system: HCC-2998 colon
HCT-116 colon = system: HCT-116 colon
HCT-15 colon = system: HCT-15 colon
HL-60(TB) leukemia = system: HL-60(TB) leukemia
HOP-62 NSCLC = system: HOP-62 NSCLC
HOP-92 NSCLC = system: HOP-92 NSCLC
HS 578T breast = system: HS 578T breast
HT29 colon = system: HT29 colon
IGROV1 ovarian = system: IGROV1 ovarian
K-562 leukemia = system: K-562 leukemia
KM12 colon = system: KM12 colon
LOX IMVI melanoma = system: LOX IMVI melanoma
M14 melanoma = system: M14 melanoma
MALME-3M melanoma = system: MALME-3M melanoma
MCF7 breast = system: MCF7 breast
MDA-MB-231 breast = system: MDA-MB-231 breast
MDA-MB-435 = system: MDA-MB-435
MDA-N = system: MDA-N
MOLT-4 leukemia = system: MOLT-4 leukemia
NCI-H226 lung = system: NCI-H226 lung
NCI-H23 lung = system: NCI-H23 lung
NCI-H460 lung = system: NCI-H460 lung
NCI-H522 lung = system: NCI-H522 lung
NCI/ADR-RES ovarian = system: NCI/ADR-RES ovarian
OVCAR-3 ovarian = system: OVCAR-3 ovarian
OVCAR-4 ovarian = system: OVCAR-4 ovarian
OVCAR-5 ovarian = system: OVCAR-5 ovarian
OVCAR-8 ovarian = system: OVCAR-8 ovarian
PC-3 prostate = system: PC-3 prostate
RPMI-8226 leukemia = system: RPMI-8226 leukemia
RXF 393 renal = system: RXF 393 renal
SF-268 CNS = system: SF-268 CNS
SF-295 CNS = system: SF-295 CNS
SF-539 CNS = system: SF-539 CNS
SK-MEL-2 melanoma = system: SK-MEL-2 melanoma
SK-MEL-28 melanoma = system: SK-MEL-28 melanoma
SK-MEL-5 melanoma = system: SK-MEL-5 melanoma
SK-OV-3 ovarian = system: SK-OV-3 ovarian
SN12C renal = system: SN12C renal
SNB-19 CNS = system: SNB-19 CNS
SNB-75 CNS = system: SNB-75 CNS
SR leukemia = system: SR leukemia
SW-620 colon = system: SW-620 colon
T-47D breast = system: T-47D breast
TK-10 renal = system: TK-10 renal
U251 CNS = system: U251 CNS
UACC-257 melanoma = system: UACC-257 melanoma
UACC-62 melanoma = system: UACC-62 melanoma
UO-31 renal = system: UO-31 renal

COC1=CC(=O)c2nc3ccccc3c3ccnc1c23
TGI (786-0 renal): > 48.7 µM
TGI (A549 NSCLC): 13.9 µM
TGI (ACHN renal): > 65.4 µM
TGI (BT-549 breast): 29.6 µM
TGI (CAKI-1 renal): > 53.8 µM
TGI (CCRF-CEM leukemia): 13.8 µM
TGI (COLO 205 colon): 26.3 µM
TGI (DU-145 prostate): 14.4 µM
TGI (EKVX NSCLC): 25.8 µM
TGI (HCC-2998 colon): 11.8 µM
TGI (HCT-116 colon): > 22.8 µM
TGI (HCT-15 colon): 13.5 µM
TGI (HL-60(TB) leukemia): 10.7 µM
TGI (HOP-62 NSCLC): > 44.8 µM
TGI (HOP-92 NSCLC): 48 µM
TGI (HS 578T breast): > 47 µM
TGI (HT29 colon): 12.5 µM
TGI (IGROV1 ovarian): 25.1 µM
TGI (K-562 leukemia): > 100 µM
TGI (KM12 colon): > 43.3 µM
TGI (LOX IMVI melanoma): 22.7 µM
TGI (M14 melanoma): 13.7 µM
TGI (MALME-3M melanoma): 7 µM
TGI (MCF7 breast): 15.2 µM
TGI (MDA-MB-231 breast): > 69 µM
TGI (MDA-MB-435): 0.38 µM
TGI (MDA-N): 0.448 µM
TGI (MOLT-4 leukemia): 13 µM
TGI (NCI-H226 lung): 33 µM
TGI (NCI-H23 lung): 16 µM
TGI (NCI-H460 lung): 8.33 µM
TGI (NCI-H522 lung): 20.5 µM
TGI (NCI/ADR-RES ovarian): 51.3 µM
TGI (OVCAR-3 ovarian): > 21.4 µM
TGI (OVCAR-4 ovarian): 18.8 µM
TGI (OVCAR-5 ovarian): 29.7 µM
TGI (OVCAR-8 ovarian): > 53.3 µM
TGI (PC-3 prostate): > 31.3 µM
TGI (RPMI-8226 leukemia): > 65.5 µM
TGI (RXF 393 renal): 16.2 µM
TGI (SF-268 CNS): > 44.2 µM
TGI (SF-295 CNS): 19.7 µM
TGI (SF-539 CNS): 13.3 µM
TGI (SK-MEL-2 melanoma): 21.8 µM
TGI (SK-MEL-28 melanoma): 41.5 µM
TGI (SK-MEL-5 melanoma): 2.82 µM
TGI (SK-OV-3 ovarian): > 100 µM
TGI (SN12C renal): > 45.1 µM
TGI (SNB-19 CNS): > 64.9 µM
TGI (SNB-75 CNS): 46.1 µM
TGI (SR leukemia): 10.8 µM
TGI (SW-620 colon): 35.1 µM
TGI (T-47D breast): > 100 µM
TGI (TK-10 renal): > 66.9 µM
TGI (U251 CNS): > 67.3 µM
TGI (UACC-257 melanoma): 17 µM
TGI (UACC-62 melanoma): 2.95 µM
TGI (UO-31 renal): > 50.2 µM
